Test results reported in ChEMBL document CHEMBL5523705, “High affinity and low PARP-trapping benzimidazole derivatives as a potential warhead for PARP1 degraders” (Eur J Med Chem, 2024).
Values belong to the compound of their own block, whether it stands above or below them.

Experiments:
MCF7 = experiment: Inhibition of cell proliferation in human MCF7 cells; type: functional, cell-based
MDA-MB-436 = experiment: Inhibition of cell proliferation in human MDA-MB-436 cells assessed as PARP trapping effect; type: functional, cell-based
[1] = Inhibition of cell proliferation in HUVECs; type: toxicity, cell-based; conditions: human, HUVEC cells
[2] = target: Poly [ADP-ribose] polymerase 1 (Homo sapiens, UniProt P09874); experiment: Inhibition of PARP1 (unknown origin) in presence of DNA and substrate by chemiluminescent assay
Poly [ADP-ribose] polymerase 1, sequence (P09874 whole entry): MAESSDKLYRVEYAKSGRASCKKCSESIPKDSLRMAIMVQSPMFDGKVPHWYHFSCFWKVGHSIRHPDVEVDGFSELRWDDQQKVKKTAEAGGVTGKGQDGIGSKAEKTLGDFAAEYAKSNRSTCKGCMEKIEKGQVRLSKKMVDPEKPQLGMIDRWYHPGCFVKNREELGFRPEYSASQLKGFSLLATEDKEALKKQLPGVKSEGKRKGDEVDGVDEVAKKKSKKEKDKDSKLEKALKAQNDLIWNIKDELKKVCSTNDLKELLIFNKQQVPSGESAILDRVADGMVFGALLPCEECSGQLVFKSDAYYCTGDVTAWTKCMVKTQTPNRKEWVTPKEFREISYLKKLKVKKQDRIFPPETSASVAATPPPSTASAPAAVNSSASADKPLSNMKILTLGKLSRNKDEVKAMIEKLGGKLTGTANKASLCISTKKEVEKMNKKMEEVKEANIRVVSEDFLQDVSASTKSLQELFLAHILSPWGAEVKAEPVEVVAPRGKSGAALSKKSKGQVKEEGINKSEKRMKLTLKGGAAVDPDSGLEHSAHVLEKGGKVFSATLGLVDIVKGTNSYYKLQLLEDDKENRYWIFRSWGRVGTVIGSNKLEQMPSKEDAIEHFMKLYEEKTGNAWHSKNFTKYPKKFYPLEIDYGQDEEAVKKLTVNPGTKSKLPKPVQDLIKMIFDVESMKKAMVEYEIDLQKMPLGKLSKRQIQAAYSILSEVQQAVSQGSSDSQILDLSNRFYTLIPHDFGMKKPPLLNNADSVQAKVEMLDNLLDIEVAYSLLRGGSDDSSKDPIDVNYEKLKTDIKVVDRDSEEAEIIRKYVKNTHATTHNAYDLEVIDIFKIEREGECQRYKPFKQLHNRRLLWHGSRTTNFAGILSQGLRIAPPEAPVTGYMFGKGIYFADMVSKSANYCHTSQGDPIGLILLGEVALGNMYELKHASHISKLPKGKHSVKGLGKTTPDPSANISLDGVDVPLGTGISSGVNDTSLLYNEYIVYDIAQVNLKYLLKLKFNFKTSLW

Structure (SMILES): C[C@]1(c2nc3c(C(N)=O)cccc3[nH]2)CCCN1 [VELIPARIB]
IC50 (MCF7; mcf7): > 100 µM
IC50 (MDA-MB-436; mda-mb-436): > 100 µM
IC50 [1]: > 100 µM

Structure (SMILES): Cn1cncc1C(=O)N1CCN(C(=O)c2ccc(-c3nc4c(C(N)=O)cccc4[nH]3)cc2)CC1
IC50 (MCF7; Homo sapiens, MCF7): > 100 µM
IC50 (MDA-MB-436; Homo sapiens, MDA-MB-436): > 100 µM
IC50 [2]: 0.0846 µM
IC50 [1]: > 100 µM

Structure (SMILES): Cc1ccoc1C(=O)N1CCN(C(=O)c2ccc(-c3nc4c(C(N)=O)cccc4[nH]3)cc2F)CC1C (stereo unspecified)
IC50 (MCF7; Homo sapiens, MCF7): > 100 µM
IC50 (MDA-MB-436; Homo sapiens, MDA-MB-436): 9.09 µM
IC50 [2]: 0.00518 µM
IC50 [1]: 85.3 µM

Structure (SMILES): NC(=O)c1cccc2[nH]c(-c3ccc(C(=O)NC4CCN(c5ccco5)C4)c(F)c3)nc12 (stereo unspecified)
IC50 (MCF7; Homo sapiens, MCF7): > 100 µM
IC50 (MDA-MB-436; Homo sapiens, MDA-MB-436): 20.5 µM
IC50 [2]: 0.009 µM
IC50 [1]: 67.1 µM

Structure (SMILES): NC(=O)c1cccc2[nH]c(-c3ccc(C(=O)NC4CCN(c5ccc(Br)o5)C4)c(F)c3)nc12 (stereo unspecified)
IC50 (MCF7; Homo sapiens, MCF7): > 100 µM
IC50 (MDA-MB-436; Homo sapiens, MDA-MB-436): 16.4 µM
IC50 [1]: > 100 µM

Structure (SMILES): O=C(c1cc(Cc2n[nH]c(=O)c3ccccc23)ccc1F)N1CCN(C(=O)C2CC2)CC1 [OLAPARIB]
IC50 (MCF7; Homo sapiens, MCF7): > 100 µM
IC50 (MDA-MB-436; Homo sapiens, MDA-MB-436): 23.9 µM
IC50 [1]: > 100 µM

Structure (SMILES): Cc1ccc(C(=O)N2CCN(C(=O)c3ccc(-c4nc5c(C(N)=O)cccc5[nH]4)cc3F)CC2C)o1 (stereo unspecified)
IC50 (MCF7; Homo sapiens, MCF7): > 100 µM
IC50 (MDA-MB-436; Homo sapiens, MDA-MB-436): 17.3 µM
IC50 [2]: 0.00572 µM
IC50 [1]: > 100 µM

The next lines start with results.

IC50 (MCF7; Homo sapiens, MCF7): > 100 µM
IC50 (MDA-MB-436; Homo sapiens, MDA-MB-436): 7.6 µM
IC50 [2]: 0.00438 µM
Structure (SMILES): NC(=O)c1cccc2[nH]c(-c3ccc(C(=O)NC4CCN(c5ccc(Cl)o5)C4)c(F)c3)nc12 (stereo unspecified)
IC50 [1]: > 100 µM

IC50 (MCF7; Homo sapiens, MCF7): > 100 µM
IC50 (MDA-MB-436; Homo sapiens, MDA-MB-436): 21.8 µM
IC50 [2]: 0.00685 µM
Structure (SMILES): CC1CN(C(=O)c2ccc(-c3nc4c(C(N)=O)cccc4[nH]3)cc2F)CCN1C(=O)c1ccc(Cl)o1 (stereo unspecified)
IC50 [1]: 47.8 µM

IC50 (MCF7; Homo sapiens, MCF7): > 100 µM
IC50 (MDA-MB-436; Homo sapiens, MDA-MB-436): 14.9 µM
Structure (SMILES): CC1CN(C(=O)c2ccc(-c3nc4c(C(N)=O)cccc4[nH]3)cc2F)CCN1C(=O)c1ccc(Br)o1 (stereo unspecified)
IC50 [1]: 52.6 µM

IC50 (MCF7; Homo sapiens, MCF7): > 100 µM
IC50 (MDA-MB-436; Homo sapiens, MDA-MB-436): > 100 µM
IC50 [2]: 0.00462 µM
Structure (SMILES): NC(=O)c1cccc2[nH]c(-c3ccc(C(=O)N4CCN(C(=O)c5csc(Br)n5)CC4)cc3)nc12
IC50 [1]: > 100 µM

IC50 (MCF7; Homo sapiens, MCF7): > 100 µM
IC50 (MDA-MB-436; Homo sapiens, MDA-MB-436): > 100 µM
IC50 [2]: 0.0506 µM
Structure (SMILES): NC(=O)c1cccc2[nH]c(-c3ccc(C(=O)N4CCN(C(=O)c5ccccn5)CC4)cc3)nc12
IC50 [1]: > 100 µM

IC50 (MCF7; Homo sapiens, MCF7): > 100 µM
IC50 (MDA-MB-436; Homo sapiens, MDA-MB-436): > 100 µM
IC50 [2]: 0.0456 µM
Structure (SMILES): Cn1cccc1C(=O)N1CCN(C(=O)c2ccc(-c3nc4c(C(N)=O)cccc4[nH]3)cc2)CC1
IC50 [1]: > 100 µM

IC50 (MCF7; Homo sapiens, MCF7): > 100 µM
IC50 (MDA-MB-436; Homo sapiens, MDA-MB-436): > 100 µM
IC50 [2]: 0.0324 µM
Structure (SMILES): NC(=O)c1cccc2[nH]c(-c3ccc(C(=O)N4CCN(C(=O)c5ccco5)CC4)c(F)c3)nc12
IC50 [1]: > 100 µM

IC50 (MCF7; Homo sapiens, MCF7): > 100 µM
IC50 (MDA-MB-436; Homo sapiens, MDA-MB-436): > 100 µM
IC50 [2]: 0.0541 µM
Structure (SMILES): NC(=O)c1cccc2[nH]c(-c3ccc(C(=O)N4CCN(C(=O)c5ccco5)CC4)cc3)nc12
IC50 [1]: > 100 µM
